For 2 molecules, cell viability and glucose level uptaken results are on record in patent US9345731B2, “Herbal extract as sensitivity enhancer toward insulin and antidiabetes” (PT. DEXA MEDICA, priority 2008, dated 2016).

For one data set, the system named is 3T3 Swiss Albino cells. In words: In vitro toxicity test (MTT) on cell viability. The class given is cell-based. The note with it: 0.02 μM, 48 hours.
Data set [1] deals with insulin resistance adipocytes 3T3 Swiss Albino cells. In words: Glucose uptake by insulin resistance adipocytes (anthrone reagent, spectrophotometer). The class given is cell-based. The note with it: 5 μg/ml extract combination or 0.02 μM pioglitazone, 48 hours, from the initial 5% (untreated). As for the experimental part: FIG. 12 is the graphic of glucose measurement results obtained from insulin resistance adipocytes 3T3 Swiss Albino after administration of 5 μg/ml Lythraceae and Lauraceae family plant combination extracts or 0.02 μM pioglitazone and/or 25 nM insulin during 48 hours incubation, then incubation with 5 mg/ml glucose for 0, 2, 4, 6 hours. 3T3 Swiss Albino cells were differentiated until 3T3 Swiss Albino pre-adipocytes and 3T3 Swiss Albino adipocytes cells were obtained. Each cell type received excessive glucose for over 2 weeks. Incubated cells received such excessive glucose were used as insulin resistance model. After that, those four type cells obtained were tested for its ability to uptake glucose in media. The remaining glucose level was analyzed so that the glucose level uptaken by each 3T3 Swiss Albino cell type could be determined. To measure glucose level that was uptaken by cell, we used an experiment method which is initialized by culturing 3T3 Swiss Albino cells in 6 cm-diameter plates. […] Glucose concentration that was uptaken by cells was measured by subtracting the initial glucose concentration with the remaining glucose in media at the end of incubation time. […] The reaction result was quantified by spectrophotometer.

For `CCC1=C(C)CN(C(=O)NCCc2ccc(S(=O)(=O)NC(=O)N[C@H]3CC[C@H](C)CC3)cc2)C1=O` [glimepiride], the cell viability result in the data set with 3T3 Swiss Albino cells is given as “did not show any effect”. Regarding `CCc1ccc(CCOc2ccc(CC3SC(=O)NC3=O)cc2)nc1` (stereo not drawn) [pioglitazone], the cell viability result in the data set with 3T3 Swiss Albino cells is “did not show any effect”. The glucose level uptaken in data set [1] is 20%.
